Columns and labels:
Type in all cases: cell-based
human α2C receptor = target: T1, human α2C receptor (Homo sapiens, UniProt P18825); test: FLIPR Ca+2 influx assay, α2C; details: for EC50: HEK 293 cells stably expressing human α2C receptor and chimeric G protein Gqi5; for Relative efficacy FLIPR α2C: relative efficacy compared to standard full agonist norepinephrine, HEK 293, human α2C/Gqi5
T1 construct: expressed in transfected cells; host or cells: HEK 293
T1 sequence (P18825 1-462): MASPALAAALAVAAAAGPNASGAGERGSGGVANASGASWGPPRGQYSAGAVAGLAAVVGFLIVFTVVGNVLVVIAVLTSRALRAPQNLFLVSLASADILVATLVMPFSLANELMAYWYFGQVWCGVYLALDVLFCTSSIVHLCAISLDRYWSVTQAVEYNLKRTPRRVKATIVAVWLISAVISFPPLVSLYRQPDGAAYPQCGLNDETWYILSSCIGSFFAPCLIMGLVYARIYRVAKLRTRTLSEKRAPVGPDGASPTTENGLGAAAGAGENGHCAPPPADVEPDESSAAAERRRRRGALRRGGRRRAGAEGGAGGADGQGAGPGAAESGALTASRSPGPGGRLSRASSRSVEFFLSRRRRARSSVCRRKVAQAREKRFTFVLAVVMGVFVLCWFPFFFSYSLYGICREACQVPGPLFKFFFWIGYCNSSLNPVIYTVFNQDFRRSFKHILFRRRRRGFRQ
Experimental: (§1) The compounds disclosed herein are agonists of alpha 2B/2C adrenergic receptors. […] This assay is adequate for monitoring the intracellular Ca^2+ mobilization from fluorescent reading to evaluate receptor agonists.
(§2) FLIPR Ca+2 Influx Assay: HEK 293 cells stably expressing the bovine α1A receptor, the rat α1B receptor, the human α2A receptor and the chimeric G protein Gqi5, the human α2C receptor and the chimeric G protein Gqi5 and the mouse α2B receptor and the Gα16 protein were plated in poly-D-lysine coated 384 well plates at 15,000-25,000 cells per well and grown overnight in DMEM supplemented with 10% fetal bovine serum. For FLIPR (fluorometric image plate reader) evaluation, cells were washed 2-4 times with HBSS/HEPES Buffer (1× Hanks Buffered Salt Solution, 20 mM HEPES<pH 7.4) prior to the addition of Fluo-4-AM (4 uM Fluo-4-AM, 0.04% pluronic acid in HBSS/HEPES Buffer), a calcium-sensitive dye. Cells were loaded with Dye for 40 minutes at 30° C., then washed 4-8 times with HBSS/HEPES Buffer to remove excess dye. Cells were preincubated at 37° C. for 3 minutes prior to placement into the FLIPR instrument. The reaction was carried out at 37° C. and was initiated by the addition of the appropriate dilutions of compounds. The transient calcium was captured and the peak height of the calcium curve determined and utilized for calculation of EC50 and efficacy using ActivityBase. Data is stored in the ActivityBase database under the unique identifier “Test Occasion”, which reflects the results of an assay run on a particular date and the individual responsible for the assay. Norepinephrine was the standard full agonist for evaluating alpha1 and alpha2 receptor activity.

rat α1B receptor = target: T2, rat α1B receptor (Rattus norvegicus, UniProt P15823); test: FLIPR Ca+2 influx assay, α1B; details: for EC50: HEK 293 cells stably expressing rat α1B receptor; for Relative efficacy FLIPR α1B: relative efficacy compared to standard full agonist norepinephrine, HEK 293, rat α1B
T2 construct: expressed in transfected cells; host or cells: HEK 293
T2 sequence (P15823 1-515): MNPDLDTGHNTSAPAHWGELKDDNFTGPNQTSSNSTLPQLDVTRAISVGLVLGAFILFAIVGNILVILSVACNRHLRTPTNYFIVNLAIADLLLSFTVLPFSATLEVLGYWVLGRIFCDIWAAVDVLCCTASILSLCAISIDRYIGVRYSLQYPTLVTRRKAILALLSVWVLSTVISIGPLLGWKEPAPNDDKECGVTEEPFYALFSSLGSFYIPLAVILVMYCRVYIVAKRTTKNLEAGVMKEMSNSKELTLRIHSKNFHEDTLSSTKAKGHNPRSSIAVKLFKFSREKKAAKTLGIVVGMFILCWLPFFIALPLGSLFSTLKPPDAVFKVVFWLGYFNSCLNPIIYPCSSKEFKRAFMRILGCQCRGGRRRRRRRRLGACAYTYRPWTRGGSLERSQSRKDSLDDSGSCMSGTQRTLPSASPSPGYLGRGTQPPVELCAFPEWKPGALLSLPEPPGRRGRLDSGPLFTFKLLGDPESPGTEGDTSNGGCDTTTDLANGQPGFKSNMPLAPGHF
Experimental: as §1, §2

human α2A receptor = target: T3, human α2A receptor (Homo sapiens, UniProt P08913); test: FLIPR Ca+2 influx assay, α2A; details: for EC50: HEK 293 cells stably expressing human α2A receptor and chimeric G protein Gqi5; for Relative efficacy FLIPR α2A: relative efficacy compared to standard full agonist norepinephrine, HEK 293, human α2A/Gqi5
T3 construct: expressed in transfected cells; host or cells: HEK 293
T3 sequence (P08913 1-465): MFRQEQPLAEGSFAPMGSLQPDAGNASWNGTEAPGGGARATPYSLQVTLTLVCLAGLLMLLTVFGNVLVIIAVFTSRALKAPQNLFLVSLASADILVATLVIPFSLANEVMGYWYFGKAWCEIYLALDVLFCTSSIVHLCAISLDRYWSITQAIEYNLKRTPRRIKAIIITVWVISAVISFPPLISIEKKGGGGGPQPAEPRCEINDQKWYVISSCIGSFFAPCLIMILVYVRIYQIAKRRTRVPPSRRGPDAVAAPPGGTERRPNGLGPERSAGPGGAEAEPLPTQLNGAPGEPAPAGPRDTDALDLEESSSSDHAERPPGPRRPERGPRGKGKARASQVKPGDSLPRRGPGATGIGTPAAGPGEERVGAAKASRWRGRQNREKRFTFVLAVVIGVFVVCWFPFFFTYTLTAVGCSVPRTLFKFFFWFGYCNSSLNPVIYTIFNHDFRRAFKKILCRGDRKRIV
Experimental: as §1, §2

bovine α1A receptor = target: T4, bovine α1A receptor (Bos taurus, UniProt P18130); test: FLIPR Ca+2 influx assay, α1A; details: for EC50: HEK 293 cells stably expressing bovine α1A receptor; for Relative efficacy FLIPR α1A: relative efficacy compared to standard full agonist norepinephrine, HEK 293, bovine α1A
T4 construct: expressed in transfected cells; host or cells: HEK 293
T4 sequence (P18130 1-466): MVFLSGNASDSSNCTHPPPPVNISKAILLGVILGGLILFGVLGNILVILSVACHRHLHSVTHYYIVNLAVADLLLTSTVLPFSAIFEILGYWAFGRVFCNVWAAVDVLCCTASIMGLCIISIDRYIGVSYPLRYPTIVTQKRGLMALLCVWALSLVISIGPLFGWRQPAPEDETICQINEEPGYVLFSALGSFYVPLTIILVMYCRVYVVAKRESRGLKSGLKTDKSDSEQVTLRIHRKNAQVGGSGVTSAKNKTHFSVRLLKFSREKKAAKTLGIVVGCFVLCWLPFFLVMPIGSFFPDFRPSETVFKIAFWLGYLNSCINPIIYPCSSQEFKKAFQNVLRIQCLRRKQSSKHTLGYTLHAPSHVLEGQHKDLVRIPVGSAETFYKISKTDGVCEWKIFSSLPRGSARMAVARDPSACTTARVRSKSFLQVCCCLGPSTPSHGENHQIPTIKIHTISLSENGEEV
Experimental: as §1, §2

mouse α2B receptor = target: T5, mouse α2B receptor (Mus musculus, UniProt P30545); test: FLIPR Ca+2 influx assay, α2B; details: for Relative efficacy FLIPR α2B: relative efficacy compared to standard full agonist norepinephrine, HEK 293, mouse α2B/Gα16
T5 construct: expressed in transfected cells; host or cells: HEK 293
T5 sequence (P30545 1-453): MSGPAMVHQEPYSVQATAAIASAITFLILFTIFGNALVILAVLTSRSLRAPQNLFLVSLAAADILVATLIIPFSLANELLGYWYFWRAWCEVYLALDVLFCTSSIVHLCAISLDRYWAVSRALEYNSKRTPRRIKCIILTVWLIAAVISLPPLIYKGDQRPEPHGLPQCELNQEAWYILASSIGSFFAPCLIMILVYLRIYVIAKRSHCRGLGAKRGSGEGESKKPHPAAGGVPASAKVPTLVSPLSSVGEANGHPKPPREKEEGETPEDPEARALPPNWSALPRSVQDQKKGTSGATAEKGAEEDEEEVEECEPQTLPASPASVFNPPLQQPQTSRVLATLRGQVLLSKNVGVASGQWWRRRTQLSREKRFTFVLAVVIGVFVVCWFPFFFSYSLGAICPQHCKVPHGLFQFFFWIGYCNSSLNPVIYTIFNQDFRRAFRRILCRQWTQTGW
Experimental: as §1, §2

[1] = HEK 293 cells stably expressing mouse α2B receptor and Gα16 protein

SMILES | EC50 (human α2C receptor) [µM] | Relative efficacy FLIPR α2C (human α2C receptor) | EC50 (rat α1B receptor) [µM] | Relative efficacy FLIPR α1B (rat α1B receptor) | EC50 (human α2A receptor) [µM] | Relative efficacy FLIPR α2A (human α2A receptor) | EC50 (bovine α1A receptor) [µM] | Relative efficacy FLIPR α1A (bovine α1A receptor) | EC50 (mouse α2B receptor; [1]) [µM] | Relative efficacy FLIPR α2B (mouse α2B receptor) | EC50 FLIPR α2B (mouse α2B receptor; [1])
CCCN(Cc1ccncc1)C1CCc2cccc(O)c2C1 (stereo not shown) |  | ND (0.12) | > 10 | 0 | > 10 | 0 | > 10 | 0 | 0.058 | 1.06 | 
CCCN(Cc1ccncc1)[C@@H]1CCc2cccc(O)c2C1 | > 10 | 0 | > 10 | 0 | > 10 | 0 | > 10 | 0 | 0.004 | 0.8 | 
CCN(Cc1cccnc1)C1CCc2cccc(O)c2C1 (stereo not shown) |  | ND (0.43) |  | ND (0.36) | 4.5 | 0.35 | 4 | 0.29 | 0.873 | 0.89 | 
CCN(Cc1ccccn1)C1CCc2cccc(OC)c2C1 (stereo not shown) | > 10 | 0 | > 10 | 0 | > 10 | 0 | > 10 | 0 | 0.647 | 0.14 | 
CCN(Cc1ccccn1)C1CCc2cccc(O)c2C1 (stereo not shown) | > 10 | 0 | > 10 | 0 | > 10 | 0 | > 10 | 0 | 0.733 | 0.28 | 
CCCN(Cc1ccccn1)C1CCc2cccc(OC)c2C1 (stereo not shown) | > 10 | 0 | > 10 | 0 | > 10 | 0 | > 10 | 0 | 0.363 | 0.63 | 
CCCN(Cc1ccccn1)C1CCc2cccc(O)c2C1 (stereo not shown) [drawing 20] | > 10 | 0 | > 10 | 0 | > 10 | 0 | > 10 | 0 | 0.568 | 0.69 | 

Now from value to molecule:

EC50 (human α2C receptor) [µM] | Relative efficacy FLIPR α2C (human α2C receptor) | EC50 (rat α1B receptor) [µM] | Relative efficacy FLIPR α1B (rat α1B receptor) | EC50 (human α2A receptor) [µM] | Relative efficacy FLIPR α2A (human α2A receptor) | EC50 (bovine α1A receptor) [µM] | Relative efficacy FLIPR α1A (bovine α1A receptor) | EC50 (mouse α2B receptor; [1]) [µM] | Relative efficacy FLIPR α2B (mouse α2B receptor) | EC50 FLIPR α2B (mouse α2B receptor; [1]) | SMILES
2.15 | 0.69 | > 10 | 0 | 1.85 | 0.22 | > 10 | 0 | 0.036 | 1.0 |  | CCCN(Cc1ccncc1)C1CCc2cccc(OC)c2C1 (stereo not shown)
0.557 | 0.67 | > 10 | 0 | 0.424 | 0.34 | > 10 | 0 |  | 1.02 | potent | CCCN(Cc1ccncc1)[C@@H]1CCc2cccc(OC)c2C1
0.253 | 0.72 | > 10 | 0 | 0.203 | 0.74 | > 10 | 0 | 0.078 | 0.91 |  | CCN(Cc1ccncc1)C1CCc2cccc(OC)c2C1 (stereo not shown)
6.7 | 0.17 |  | ND (0.15) | 5.5 | 0.16 |  | ND (0.1) | 0.185 | 1.08 |  | CCN(Cc1ccncc1)C1CCc2cccc(O)c2C1 (stereo not shown)
0.652 | 0.52 | > 10 | 0 | 0.442 | 0.51 | > 10 | 0 | 0.614 | 0.26 |  | CCN(Cc1cccnc1)C1CCc2cccc(OC)c2C1 (stereo not shown)
 | ND (0.13) | > 10 | 0 | > 1 | 0 | > 10 | 0 | 0.82 | 0.47 |  | CCCN(Cc1cccnc1)C1CCc2cccc(OC)c2C1 (stereo not shown)

Reference: US7829587B2, “Substituted 2-aminotetralin derivatives as selective alpha 2B agonist” (Allergan, Inc., priority 2008, dated 2010)
